Data set [1] addresses T1, Solute carrier organic anion transporter family member 1B1 (Homo sapiens, UniProt Q9Y6L6).
T1 sequence (Q9Y6L6 whole entry): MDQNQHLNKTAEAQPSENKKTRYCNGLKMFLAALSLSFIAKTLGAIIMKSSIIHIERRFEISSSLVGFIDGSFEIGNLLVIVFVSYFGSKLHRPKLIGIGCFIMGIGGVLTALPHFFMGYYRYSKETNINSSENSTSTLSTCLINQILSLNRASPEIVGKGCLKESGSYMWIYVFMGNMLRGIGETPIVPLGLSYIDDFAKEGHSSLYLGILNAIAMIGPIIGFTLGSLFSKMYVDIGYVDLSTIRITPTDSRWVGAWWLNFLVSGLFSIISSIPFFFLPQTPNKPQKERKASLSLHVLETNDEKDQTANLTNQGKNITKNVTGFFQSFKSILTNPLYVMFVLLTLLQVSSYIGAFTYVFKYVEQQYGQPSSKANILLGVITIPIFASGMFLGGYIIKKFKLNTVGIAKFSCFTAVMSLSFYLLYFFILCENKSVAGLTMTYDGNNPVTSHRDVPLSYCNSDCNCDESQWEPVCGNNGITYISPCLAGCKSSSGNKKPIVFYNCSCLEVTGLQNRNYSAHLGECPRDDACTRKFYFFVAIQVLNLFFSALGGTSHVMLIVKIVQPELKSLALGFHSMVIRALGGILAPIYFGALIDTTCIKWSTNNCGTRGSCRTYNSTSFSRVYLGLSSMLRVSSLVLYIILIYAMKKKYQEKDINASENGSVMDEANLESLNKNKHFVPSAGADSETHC
As to conditions: chinese hamster, cho, 10 µM.

In data set [2] the target is T2, Solute carrier organic anion transporter family member 1B3 (Homo sapiens, UniProt Q9NPD5).
T2 sequence (Q9NPD5 whole entry): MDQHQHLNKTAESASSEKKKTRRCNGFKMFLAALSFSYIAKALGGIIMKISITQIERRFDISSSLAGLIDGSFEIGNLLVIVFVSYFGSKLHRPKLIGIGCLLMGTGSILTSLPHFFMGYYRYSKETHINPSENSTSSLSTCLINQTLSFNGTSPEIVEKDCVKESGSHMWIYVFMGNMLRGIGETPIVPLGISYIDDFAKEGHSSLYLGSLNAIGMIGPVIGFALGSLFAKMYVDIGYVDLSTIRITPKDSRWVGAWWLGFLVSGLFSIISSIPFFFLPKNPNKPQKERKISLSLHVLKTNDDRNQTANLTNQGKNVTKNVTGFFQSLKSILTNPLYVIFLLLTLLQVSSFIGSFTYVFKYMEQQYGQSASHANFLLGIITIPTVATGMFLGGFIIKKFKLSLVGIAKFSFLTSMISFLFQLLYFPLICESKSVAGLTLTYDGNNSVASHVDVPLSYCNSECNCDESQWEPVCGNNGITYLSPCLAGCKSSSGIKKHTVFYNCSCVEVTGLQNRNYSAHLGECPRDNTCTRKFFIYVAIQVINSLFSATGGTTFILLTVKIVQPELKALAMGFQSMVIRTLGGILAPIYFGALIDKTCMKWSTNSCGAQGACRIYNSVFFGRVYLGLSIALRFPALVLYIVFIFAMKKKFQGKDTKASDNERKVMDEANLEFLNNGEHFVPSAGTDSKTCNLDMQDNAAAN
As to conditions: chinese hamster, cho, 10 µM.

Each structure is given as a SMILES string.

Take `COC(=O)C(O)c1ccccc1` (configuration not stated) [MANDELIC ACID, METHYL ESTER]: the values for the residual activity in data set [1] and in data set [2] were 97.92% and 76.32%, respectively.
In the case of `COc1c(O)cc2oc3cc(O)c(CC=C(C)C)c(O)c3c(=O)c2c1CC=C(C)C` [MANGOSTIN], the residual activity in data set [1] was 150.2%; in data set [2] it was 110.4%.
The corresponding values for `CC(=O)OC(C)(C)[C@@H]1Cc2cc3ccc(=O)oc3cc2O1` [MARMESIN ACETATE] are 70.52% and 88.18%.
The corresponding values for `CC(C)(O)[C@@H]1Cc2cc3ccc(=O)oc3cc2O1` [MARMESIN] are 89.64% and 103.9%.
For the molecule `COC(=O)Nc1nc2ccc(C(=O)c3ccccc3)cc2[nH]1` [MEBENDAZOLE], the residual activity amounted to 159.5% in data set [1] and 99% in data set [2].
The matching figures for `CCN(CCCCOC(=O)c1ccc(OC)c(OC)c1)C(C)Cc1ccc(OC)cc1.Cl` (configuration not stated) [MEBEVERINE HYDROCHLORIDE]: 89.99% and 112%.
With `CNC1(C)C2CCC(C2)C1(C)C.Cl` (configuration not stated) [MECAMYLAMINE HYDROCHLORIDE], the residual activity is on record as 93.56% in data set [1] and 106.8% in data set [2].
With `C=C1c2c(Cl)ccc(O)c2C(=O)C2=C(O)[C@]3(O)C(=O)C(C(N)=O)=C(O)[C@@H](N(C)C)[C@@H]3[C@@H](O)[C@H]12.O=C(O)c1cc(S(=O)(=O)O)ccc1O` [MECLOCYCLINE SULFOSALICYLATE], the residual activity in data set [1] stood at 122.1%; in data set [2] it was 107.8%.
Turning to `Cc1ccc(Cl)c(Nc2ccccc2C(=O)[O-])c1Cl.O.[Na+]` [MECLOFENAMATE SODIUM], the residual activity in data set [1] was found to be 77.28%; in data set [2], 87.03%.
The matching figures for `COC(=O)C(N)CS.Cl` (configuration not stated) [MECYSTEINE HYDROCHLORIDE]: 97.76% and 99.55%.
As to `CC(=O)O[C@]1(C(C)=O)CC[C@H]2[C@@H]3C[C@H](C)C4=CC(=O)CC[C@]4(C)[C@H]3CC[C@@]21C` [MEDROXYPROGESTERONE ACETATE], the residual activity in data set [1] is recorded as 105.9%; in data set [2] it was 104.4%.
The matching figures for `CC(=O)[C@H]1CC[C@H]2[C@@H]3C[C@H](C)C4=CC(=O)CC[C@]4(C)[C@H]3[C@@H](O)C[C@]12C` [MEDRYSONE]: 86.36% and 90.89%.
The matching figures for `Cc1cccc(Nc2ccccc2C(=O)O)c1C` [MEFENAMIC ACID]: 63.23% and 72.63%.
The matching figures for `OC(c1cc(C(F)(F)F)nc2c(C(F)(F)F)cccc12)C1CCCCN1` (configuration not stated) [MEFLOQUINE]: 161.6% and 112.7%.
In the case of `CC(=O)O[C@]1(C(C)=O)CC[C@H]2[C@@H]3C=C(C)C4=CC(=O)CC[C@]4(C)[C@H]3CC[C@@]21C` [MEGESTROL ACETATE], the residual activity in data set [1] is reported as 50.69%; in data set [2], 93.03%.
`COc1ccc2[nH]cc(CCNC(C)=O)c2c1` [MELATONIN]: the residual activity in data set [1] is on record as 71.02%; in data set [2] it was 91.63%.
Turning to `OC[C@H]1O[C@@](CO)(O[C@H]2O[C@H](CO)[C@@H](O)[C@H](O)[C@H]2O)[C@@H](O[C@H]2O[C@H](CO)[C@@H](O)[C@H](O)[C@H]2O)[C@@H]1O` [MELEZITOSE], the residual activity in data set [1] came out at 99.1%; in data set [2], 96.54%.
The corresponding values for `CC12CC3CC(C)(C1)CC(N)(C3)C2.Cl` [MEMANTINE HYDROCHLORIDE] are 88.64% and 88.95%.
For the molecule `CC1=CC(=O)c2ccccc2C1=O` [MENADIONE], the residual activity in data set [1] amounted to 157.5%; in data set [2], 112.1%.
On to `CC(C)[C@@H]1CC[C@@H](C)CC1=O` [MENTHONE], for which the residual activity came out at 96.98% in data set [1] and 100.2% in data set [2].
With `CC(C)[C@@H]1CC[C@@H](C)C[C@H]1OC(=O)c1ccccc1` [MENTHYL BENZOATE], the results for the residual activity in data set [1] and in data set [2] were 100.9% and 101.1%, respectively.
For `CNc1ccc(C(=O)CC(O)CCC(C)C2OC(=O)CC(O)CC(=O)CC(O)CC(O)CC(O)CC(O)CC3(O)CC(O)C(C(=O)OC)C(CC(O[C@@H]4O[C@H](C)[C@@H](O)[C@H](N)[C@@H]4O)/C=C/C=C/C=C/C=C/C=C/C=C/C=C/C2C)O3)cc1.COC(=O)C1C(O)CC2(O)CC(O)CC(O)CC(O)CC(O)CC(=O)CC(O)CC(=O)OC(C(C)CCC(O)CC(=O)c3ccc(N)cc3)C(C)/C=C/C=C/C=C/C=C/C=C/C=C/C=C/C(O[C@@H]3O[C@H](C)[C@@H](O)[C@H](N)[C@@H]3O)CC1O2` (some centres not stated) [MEPARTRICIN], the residual activity in data set [1] was determined as 95.55%; in data set [2], 86.4%.
As to `C[N+]1(C)CCCC(OC(=O)C(O)(c2ccccc2)c2ccccc2)C1.[Br-]` (configuration not stated) [MEPENZOLATE BROMIDE], the residual activity came to 121.8% in data set [1] and 106.1% in data set [2].
In the case of `Cc1ccccc1OCC(O)CO` (configuration not stated) [MEPHENESIN], the residual activity stood at 101% in data set [1] and 107.5% in data set [2].
The corresponding values for `Cc1cccc(C)c1NC(=O)C1CCCCN1C.Cl` (configuration not stated) [MEPIVACAINE HYDROCHLORIDE] are 96.31% and 96.16%.
Regarding `Sc1ncnc2nc[nH]c12` [MERCAPTOPURINE ANHYDROUS], the residual activity is reported as 107.8% in data set [1] and 105.3% in data set [2].
For `CC1=C2C(O)C(=O)OC3CC4C(C)(C)C(=O)C=C[C@]4(C)C(CC1)[C@]23C` (some centres not stated) [MEROGEDUNIN], the figures for the residual activity in data set [1] and in data set [2] were 106.3% and 83.06%, respectively.
The matching figures for `O=S(=O)([O-])CCS.[Na+]` [MESNA]: 95.36% and 97.81%.
The corresponding values for `CC(=O)Nc1cccc(O)c1` [METACETAMOL] are 66.39% and 79.17%.
The corresponding values for `COc1cc2c(cc1OC)C(=O)OC2` [METAMECONINE] are 92.42% and 95.41%.
In the case of `CC(C)NCC(O)c1cc(O)cc(O)c1` (configuration not stated) [METAPROTERENOL], the residual activity in data set [1] is 108.3%; in data set [2], 111.7%.
The matching figures for `Cc1cc(C)cc(OCC2CNC(=O)O2)c1` (configuration not stated) [METAXALONE]: 88.21% and 93.18%.
The matching figures for `CC(=O)OC(C)C[N+](C)(C)C.[Cl-]` (configuration not stated) [METHACHOLINE CHLORIDE]: 86.62% and 106.9%.
Take `C=C1c2cccc(O)c2C(=O)C2=C(O)[C@]3(O)C(=O)C(C(N)=O)=C(O)[C@@H](N(C)C)[C@@H]3[C@@H](O)[C@H]12.Cl` [METHACYCLINE HYDROCHLORIDE]: the results for the residual activity in data set [1] and in data set [2] were 110.8% and 110.7%, respectively.
Consider `COP(N)(=O)SC` (configuration not stated) [METHAMIDOPHOS], for which the residual activity stood at 96.41% in data set [1] and 106% in data set [2].
The corresponding values for `COS(C)(=O)=O` [METHANESULFONIC ACID METHYL ESTER] are 57.02% and 79.48%.
The corresponding values for `CN(C)CCN(Cc1cccs1)c1ccccn1.Cl` [METHAPYRILENE HYDROCHLORIDE] are 83.03% and 82.96%.
Consider `CC(=O)/N=c1/sc(S(N)(=O)=O)nn1C` [METHAZOLAMIDE], for which the residual activity is listed as 101.3% in data set [1] and 93.09% in data set [2].
The matching figures for `C1N2CN3CN1CN(C2)C3` [METHENAMINE]: 93.33% and 72.89%.
As for `Cn1cc[nH]c1=S` [METHIMAZOLE], the residual activity in data set [1] stood at 111.7%; in data set [2], 105.6%.
The corresponding values for `COc1ccccc1OCC(O)COC(N)=O` (configuration not stated) [METHOCARBAMOL] are 101.2% and 104.7%.
